Measured values as given in article PMC9184620, “TAS1553, a small molecule subunit interaction inhibitor of ribonucleotide reductase, exhibits antitumor activity by causing DNA replication stress” (Communications Biology, 2022).

How the values were obtained:
[1] = molecular target: T1, RNR (R1 and R2 recombinant proteins) (Homo sapiens, UniProt P23921); test: RNR assay (formation of dCDP from CDP); assay type: biochemical; details: CDP to dCDP; mean ± SD; read-out: Enzyme IC50
T1 construct: made in house; host or cells: Escherichia coli
T1 sequence (P23921 1-792): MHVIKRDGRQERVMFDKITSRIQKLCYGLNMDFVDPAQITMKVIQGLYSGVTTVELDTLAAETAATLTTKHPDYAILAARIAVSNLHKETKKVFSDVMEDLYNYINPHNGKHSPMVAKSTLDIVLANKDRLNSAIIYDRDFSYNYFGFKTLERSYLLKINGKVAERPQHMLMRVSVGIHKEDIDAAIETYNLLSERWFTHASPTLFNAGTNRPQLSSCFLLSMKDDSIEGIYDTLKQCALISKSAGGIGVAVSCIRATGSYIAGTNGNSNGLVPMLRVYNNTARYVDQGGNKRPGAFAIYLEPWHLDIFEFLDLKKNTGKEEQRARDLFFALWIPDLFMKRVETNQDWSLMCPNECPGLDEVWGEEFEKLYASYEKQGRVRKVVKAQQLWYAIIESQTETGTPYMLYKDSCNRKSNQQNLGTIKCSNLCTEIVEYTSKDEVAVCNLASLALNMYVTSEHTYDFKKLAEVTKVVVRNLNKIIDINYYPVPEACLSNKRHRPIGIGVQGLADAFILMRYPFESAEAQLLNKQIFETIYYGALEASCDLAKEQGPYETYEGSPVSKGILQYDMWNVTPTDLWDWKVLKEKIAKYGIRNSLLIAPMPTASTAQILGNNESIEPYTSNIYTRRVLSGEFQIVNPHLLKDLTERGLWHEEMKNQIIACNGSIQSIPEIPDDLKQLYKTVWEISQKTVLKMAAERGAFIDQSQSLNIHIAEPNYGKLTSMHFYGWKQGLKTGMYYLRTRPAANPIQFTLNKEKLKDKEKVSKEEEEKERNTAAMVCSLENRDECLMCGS
Experimental: The binding affinity of TAS1553 to the R1 subunit was investigated using surface plasmon resonance (SPR) binding analysis. […] Next, we evaluated the inhibitory effect of TAS1553 against the enzymatic activity of RNR, consisting of R1 and R2 recombinant proteins. RNR activity was determined by its ability to reduce cytidine diphosphate (CDP) to deoxycytidine diphosphate (dCDP), based on a previous report. […] In addition to the inhibitory effect on RNR, TAS1553 was evaluated in a Eurofins LeadProfilingScreen panel assay including 68 proteins, such as ion channels, transporters, nuclear receptors, and G protein-coupled receptors, to examine its potential adverse activity.
The inhibition of RNR activity by the test compound was evaluated by measuring the formation of dCDP from CDP, as reported previously. The assay was performed for 30 min at 37 °C in a reaction mixture composed of 50 mmol/L HEPES, 4 mmol/L magnesium acetate, 100 mmol/L KCl, 6 mmol/L DTT, 2 mmol/L ATP, 0.24 mmol/L NADPH, 10.0 µmol/L CDP, 0.1 mg/mL BSA, 8.0 µg/mL His-R1, 2.4 µg/mL His-R2, and 1% DMSO with or without test compound. The reaction was discontinued by heat treatment at 95 °C for 5 min. The amount of dCDP after the reaction was quantified by a prominence HPLC system and LabSolutions software (SHIMADZU CORPORATION). Separations were performed at 265 nm in a Shim-pack XR-ODS column of particle size 2.2 μm (100 × 3.0 mm, SHIMADZU GLC Ltd.). Overall, 5 µL of each sample was injected, and chromatography was performed at 40 °C. Mobile A was composed of 10 mmol/L potassium dihydrogenphosphate, 10 mmol/L tetrabutylammonium hydroxide, 0.25% methanol and 8 mmol/L HCl. Mobile B was composed of 50 mmol/L potassium dihydrogenphosphate, 5.6 mmol/L tetrabutylammonium hydroxide, and 30% methanol. The gradient was as follows: 52–60% B for 9 min, 60–99% B for 1 min, 99% B for 5 min, 99–52% B for 1 min, and 52% B for 5 min. The flow rate was 0.5 mL/min. The experiment was performed in triplicates. IC50 values were calculated using the SAS software package.

[2] = molecular target: T2, interaction between R1 and R2 (human RNR) (Homo sapiens, UniProt P23921); test: AlphaLISA binding assay (interaction between His-R1 and GST-R2); details: recombinant R1 and R2; mean ± SD
T2 construct: host or cells: Escherichia coli (His-R1)
T2 sequence (P23921 1-792): T1 sequence (P23921 1-792)

HCC38 xenograft = test: Antitumor activity in mice bearing HCC38 xenografts; assay type: in vivo, mouse; details: 100 mg/kg oral once daily for 14 days
Experimental: (§1) Next, we evaluated the antitumor activity of a high-dose administration of TAS1553 and cytarabine in rats bearing MV-4-11 xenografts. […] The rats were treated with cytarabine for 5 days at 16 and 32 mg/kg. […] In addition to the hematologic tumor, we evaluated the antitumor activity of TAS1553 in mice implanted with HCC38 cell line as a solid tumor model. […] Finally, TAS1553 was evaluated for its survival benefit in a mouse model. To achieve this, we established mice bone marrow cells harboring the human MLL-AF9 fusion gene, which is known as a driver gene for AML in humans as well as mice[48]. Mice were transplanted with the cells through the tail vein and the treatment with TAS1553 was started 11 days post-implantation.
For the subcutaneous implantation model of MV-4-11, F344/NJcl-rnu/rnu rats were irradiated with X-ray (4 Gy) to improve the efficiency of xenograft implantation. Two days after X-ray irradiation, MV-4-11 cells suspended in PBS with 50 vol% Matrigel were inoculated into the rats (2 × 10^7 cells/animal). In the mice subcutaneous implantation model, HCC38 cells suspended same as above were inoculated into male BALB/cAJcl-nu/nu mice (1 × 10^7 cells /body). The animals were randomized and administered with the compound for 14 days. Antitumor activity and body weight change were evaluated as previously reported. Dunnett test using the SAS software package in EXSUS (CAC Croit) was used to compare the tumor volume (P < 0.05).

MLL-AF9 AML cells = test: Survival in systemic AML model (mice bone marrow cells harboring human MLL-AF9 fusion gene); assay type: in vivo, mouse; details: 100 mg/kg daily
Experimental: as §1

SMILES: Cc1ccc(F)c([C@@H](C)[C@H](NS(=O)(=O)c2ccc(Cl)cc2C(N)=O)c2n[nH]c(=O)o2)c1C [TAS1553, 5-chloro-2-{N-[(1S,2R)-2-(6-fluoro-2,3-dimethylphenyl)-1-(5-oxo-4,5-dihydro-1,3,4-oxadiazol-2-yl)propyl]sulfamoyl}benzamide]
- IC50 [1]: 54.2 ± 6.1 nM
- IC50 [2]: 39.6 ± 4.2 nM
- T/C ratio (HCC38 xenograft): 40.4%
- median survival time (MLL-AF9 AML cells; start 11 days post-implantation): 75.5 days
- increase in the life span (MLL-AF9 AML cells; versus control): 34.8%
